Counter-ions that a name gives are not always drawn. Blank lines part the entries; values can stand above or below the molecule they belong to.
Assays:
D2L receptor = target: T1, D2L receptor (Homo sapiens, UniProt P14416); experiment: Inhibition constants for binding to cloned D2L receptor expressed in HEK cells, [3H]spiperone
T1 construct: expressed in transfected cells; host or cells: HEK cells
Experimental: (§1) Inhibition constants for binding to cloned D2L and D3 receptors expressed in HEK cells by displacing [^3H] spiperone were measured for several compounds.

D3 receptor = D3 receptor (Homo sapiens, UniProt P35462); experiment: Inhibition constants for binding to cloned D3 receptor expressed in HEK cells, [3H]spiperone
Sequence of D3 receptor (P35462 whole entry): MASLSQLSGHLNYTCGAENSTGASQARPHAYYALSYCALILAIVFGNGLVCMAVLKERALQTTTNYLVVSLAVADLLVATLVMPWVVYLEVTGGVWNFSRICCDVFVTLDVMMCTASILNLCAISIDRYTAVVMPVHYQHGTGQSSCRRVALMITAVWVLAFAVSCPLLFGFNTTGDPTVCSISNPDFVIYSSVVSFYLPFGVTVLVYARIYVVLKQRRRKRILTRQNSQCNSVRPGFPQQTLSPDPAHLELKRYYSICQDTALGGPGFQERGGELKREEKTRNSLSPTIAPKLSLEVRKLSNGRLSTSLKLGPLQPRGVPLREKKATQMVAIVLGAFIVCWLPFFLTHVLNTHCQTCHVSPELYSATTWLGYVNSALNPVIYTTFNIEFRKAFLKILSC
Experimental: as §1

D1 receptor = target: T2, D1 receptor (Homo sapiens, UniProt P21728); experiment: Binding affinity at cloned human D1 receptor, [3H]SCH23390 (LHD1 cells)
T2 construct: expressed in transfected cells; host or cells: LHD1 cells
T2 sequence (P21728 whole entry): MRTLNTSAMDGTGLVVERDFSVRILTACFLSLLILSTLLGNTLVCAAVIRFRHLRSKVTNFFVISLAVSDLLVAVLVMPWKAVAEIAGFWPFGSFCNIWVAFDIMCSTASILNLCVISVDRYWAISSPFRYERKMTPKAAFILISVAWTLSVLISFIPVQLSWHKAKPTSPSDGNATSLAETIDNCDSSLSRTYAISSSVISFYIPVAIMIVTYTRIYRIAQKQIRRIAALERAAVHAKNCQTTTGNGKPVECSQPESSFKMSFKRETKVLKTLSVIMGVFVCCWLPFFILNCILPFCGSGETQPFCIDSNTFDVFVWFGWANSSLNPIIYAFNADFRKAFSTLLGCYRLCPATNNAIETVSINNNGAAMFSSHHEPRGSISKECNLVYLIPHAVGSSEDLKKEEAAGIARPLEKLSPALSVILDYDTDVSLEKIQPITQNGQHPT
Experimental: LHD1 cells (human receptor) are grown and prepared as described for the HA7 cells as described hereafter. The final pellet is resuspended at 5 mg protein/80 ml in 50 mM Tris-HCl containing 120 mM of NaCl, 5 mM of KCl, 2 mM of CaCl2, and 1 mM of MgCl2, pH 7.4. To wells containing 100 μl of test drug or buffer and […] of [^3H]SCH 23390 (0.18 nM final conc.), is added 0.8 ml of cell homogenate (0.05 mg protein/well), and the plates are incubated at […] for 60 min. Nonspecific binding is determined with 1 μM of SCH 23390.

5HT1A receptor = target: T3, 5HT1A receptor (Homo sapiens, UniProt P08908); experiment: Binding affinity at cloned human 5HT1A receptor, [3H]8-OH-DPAT (HA7 cells)
T3 construct: expressed in transfected cells; host or cells: HA7 cells
T3 sequence (P08908 1-422): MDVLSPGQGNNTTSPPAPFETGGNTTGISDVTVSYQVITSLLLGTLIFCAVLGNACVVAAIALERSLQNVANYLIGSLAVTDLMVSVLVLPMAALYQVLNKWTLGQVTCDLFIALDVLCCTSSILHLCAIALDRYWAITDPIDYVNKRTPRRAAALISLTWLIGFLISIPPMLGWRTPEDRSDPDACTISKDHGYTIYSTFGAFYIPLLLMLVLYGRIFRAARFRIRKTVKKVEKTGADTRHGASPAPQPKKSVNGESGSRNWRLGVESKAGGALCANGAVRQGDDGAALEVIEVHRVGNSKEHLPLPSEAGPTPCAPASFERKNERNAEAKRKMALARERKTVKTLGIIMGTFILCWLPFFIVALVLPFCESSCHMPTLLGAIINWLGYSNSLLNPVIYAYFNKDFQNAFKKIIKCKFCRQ
Experimental: HA7 cells (human receptor) are grown to confluence in DMEM containing 10% fetal calf serum, 0.05% penicillin-streptomycin (pen-strep), and […] of G418. The cells are scraped from the 100 by 20 mm plates and centrifuged at 500·G for 5 min. The pellet is homogenized in 50 mM Tris-HCl, pH 7.7, with a polytron, centrifuged at 27,000·G and resuspended at 10 mg protein/ml in the same buffer. The homogenate is then stored at −70° C. in 1-ml aliquots.
The thawed cells are washed once and resuspended at 10 mg protein/80 ml in 25 mM Tris-HCl containing 100 μM of ascorbic acid and 10 mM of nialamide at pH 7.4. The assay is performed in triplicate in a 96-well plate. To 100 μl of [^3H]8-OH-DPAT (0.5 nM final conc), […] of test compound or buffer and 0.8 ml of cell homogenate (0.1 mg protein/well) is added to each well by a Tomtec Quadra 96. Nonspecific binding is defined using 1 μM dihydroergotamine. The plates are incubated at 25° C. for 60 min, then filtered. The incubation is terminated by rapid filtration through glass fiber filter paper on a Tomtec cell harvester. The filters are washed four times with ice-cold 50 mM Tris-HCl, pH 7.7, dried overnight, bagged with 10 ml scintillation cocktail before counting for 2 min. on a Wallac Betaplate 1205 liquid scintillation counter.

5HT2A receptor = target: T4, 5HT2A receptor (Homo sapiens, UniProt P28223); experiment: Binding affinity at cloned human 5HT2A receptor, [3H]Ketanserin
T4 construct: expressed in transfected cells
T4 sequence (P28223 whole entry): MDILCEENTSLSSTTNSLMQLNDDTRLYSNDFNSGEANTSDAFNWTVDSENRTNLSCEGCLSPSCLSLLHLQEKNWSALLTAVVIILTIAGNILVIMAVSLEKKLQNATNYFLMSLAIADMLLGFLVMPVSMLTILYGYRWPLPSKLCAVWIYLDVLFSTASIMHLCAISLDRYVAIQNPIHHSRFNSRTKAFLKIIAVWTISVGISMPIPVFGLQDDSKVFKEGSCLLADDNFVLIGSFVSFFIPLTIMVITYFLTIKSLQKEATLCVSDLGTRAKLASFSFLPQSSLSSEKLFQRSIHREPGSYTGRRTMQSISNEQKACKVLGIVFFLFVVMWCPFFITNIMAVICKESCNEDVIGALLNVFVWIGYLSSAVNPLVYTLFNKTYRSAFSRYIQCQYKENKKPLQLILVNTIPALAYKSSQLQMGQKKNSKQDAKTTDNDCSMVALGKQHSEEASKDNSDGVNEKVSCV

5HT2C receptor = target: T5, 5HT2C receptor (Homo sapiens, UniProt P28335); experiment: Binding affinity at cloned human 5HT2C receptor, [3H]Mesulergine
T5 construct: expressed in transfected cells
T5 sequence (P28335 33-458): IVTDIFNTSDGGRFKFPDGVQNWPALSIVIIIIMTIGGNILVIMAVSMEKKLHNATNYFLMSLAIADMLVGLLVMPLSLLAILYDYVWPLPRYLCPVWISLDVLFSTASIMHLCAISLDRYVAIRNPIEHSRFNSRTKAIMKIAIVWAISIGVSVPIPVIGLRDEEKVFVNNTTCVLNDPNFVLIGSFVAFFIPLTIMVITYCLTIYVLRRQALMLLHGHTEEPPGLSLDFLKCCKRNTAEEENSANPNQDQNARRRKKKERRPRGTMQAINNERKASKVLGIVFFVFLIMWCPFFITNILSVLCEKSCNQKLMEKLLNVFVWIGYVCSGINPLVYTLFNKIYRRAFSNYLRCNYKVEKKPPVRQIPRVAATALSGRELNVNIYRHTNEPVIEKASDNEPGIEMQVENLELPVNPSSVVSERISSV

D2 receptor = target: T6, D2 receptor (Homo sapiens, UniProt P14416); experiment: Agonist potency by [3H]thymidine incorporation (mitogenesis), D2; assay type: cell-based; settings: read-out: D2 % Maxm Stim
T6 construct: expressed in transfected cells
T6 sequence (P14416 whole entry): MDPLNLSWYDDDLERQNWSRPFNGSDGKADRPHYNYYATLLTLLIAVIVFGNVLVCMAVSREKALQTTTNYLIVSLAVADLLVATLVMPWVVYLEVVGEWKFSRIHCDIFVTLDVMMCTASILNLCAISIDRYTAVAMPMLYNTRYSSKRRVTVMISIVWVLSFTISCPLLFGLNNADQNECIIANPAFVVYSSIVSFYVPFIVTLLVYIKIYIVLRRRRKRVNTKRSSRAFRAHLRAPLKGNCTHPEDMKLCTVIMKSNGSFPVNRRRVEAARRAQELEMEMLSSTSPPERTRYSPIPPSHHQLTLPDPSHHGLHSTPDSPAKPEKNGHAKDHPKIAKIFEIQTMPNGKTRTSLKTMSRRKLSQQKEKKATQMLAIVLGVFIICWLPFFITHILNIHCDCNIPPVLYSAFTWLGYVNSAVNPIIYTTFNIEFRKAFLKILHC
Experimental: (§2) Potential as domaminergenic agonists was assayed by ^3H-thymidine incorporation by standard techniques.
The EC50 values thus indicate intrinsic activities or functional activities of these compounds. The value of % maximum stimulation indicates whether a compound is a partial agonist or full agonist. Generally, a value greater than 80% is considered as a full agonist and anything less than 80% is considered as a partial agonist.

D4 receptor [1] = target: T7, D4 receptor (Homo sapiens, UniProt P21917); experiment: Agonist potency by [3H]thymidine incorporation (mitogenesis), D4; assay type: cell-based; design: expressed in transfected cells
T7 sequence (P21917 1-419): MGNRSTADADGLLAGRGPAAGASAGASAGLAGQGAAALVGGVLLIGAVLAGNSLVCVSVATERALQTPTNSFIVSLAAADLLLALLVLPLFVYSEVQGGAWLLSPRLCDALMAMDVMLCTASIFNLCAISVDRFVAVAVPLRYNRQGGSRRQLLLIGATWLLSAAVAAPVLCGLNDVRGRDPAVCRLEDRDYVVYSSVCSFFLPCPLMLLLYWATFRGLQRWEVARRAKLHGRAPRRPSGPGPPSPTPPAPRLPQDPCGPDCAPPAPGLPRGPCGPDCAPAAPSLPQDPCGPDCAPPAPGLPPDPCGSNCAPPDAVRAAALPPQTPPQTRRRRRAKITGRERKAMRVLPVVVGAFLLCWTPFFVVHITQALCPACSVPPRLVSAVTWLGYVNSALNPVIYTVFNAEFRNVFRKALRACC
Experimental: as §2
The mitogenesis study results presented in Table 7 assay the ability of these ligands to act as agonists or antagonists. The EC50 values thus indicate intrinsic activities or functional activities of these compounds. The value of % maximum stimulation indicates whether a compound is a partial agonist or full agonist. Generally, a value greater than 80% is considered as a full agonist and anything less than 80% is considered as a partial agonist. A compound will be considered antagonist if it produces a negative result (no [3H]thymidine incorporation) in the assay. All the compounds reported in Table 7 are either full agonists or partial agonists.

D4 receptor [2] = target: T7, D4 receptor; experiment: Binding affinity at cloned human D4 receptor, [3H]YM-09151-2 (CHO D4.4 cells); design: expressed in transfected cells; host or cells: CHO D4.4 cells
Experimental: CHO D4.4 cells (human receptors) are grown to confluence in D4 Puromycin medium containing 2 μg/ml puromycin, 5% fetal calf serum and 5 supplemented calf serum and 0.5% pen-strep. The cells are harvested as described for D2 and D3 cells and used at a concentration of 0.15 mg protein/well in the [^3H]YM-09151-2 binding assay.

T1 sequence (P14416 whole entry): as the sequence (P14416 whole entry) above

melting point: 278 to 284 °C
Structure (SMILES): CCCN(CCc1cccc(N)c1)CCN1CCN(c2ccccc2)CC1 (as salt: hydrochloride) [Compound 29b, 3-(2-{[2-(4-Phenyl-piperazin-1-yl)-ethyl]-propyl-amino}-ethyl)-phenylamine]

melting point: 220 to 224 °C
Structure (SMILES): CCCN(CCc1cccc(NS(=O)(=O)c2ccc(Cl)cc2)c1)CCN1CCN(c2ccccc2)CC1 (as salt: hydrochloride) [Compound 30b, 4-Chloro-N-[3-(2-{[2-(4-phenyl-piperazin-1-yl)-ethyl]-propyl-amino}-ethyl)-phenyl]-benzenesulfonamide]

melting point: 262 to 264 °C
Structure (SMILES): CCCN(CCc1ccc(N)cc1)CCN1CCN(c2ccccc2)CC1 (as salt: hydrochloride) [Compound 29a, 4-(2-{[2-(4-Phenyl-piperazin-1-yl)-ethyl]-propyl-amino}-ethyl)-phenylamine]

melting point: 224 to 226 °C
Structure (SMILES): CCCN(CCc1ccc(NS(=O)(=O)c2ccc(Cl)cc2)cc1)CCN1CCN(c2ccccc2)CC1 (as salt: hydrochloride) [Compound 30a, 4-Chloro-N-[4-(2-{[2-(4-phenyl-piperazin-1-yl)-ethyl]-propyl-amino}-ethyl)-phenyl]-benzenesulfonamide]

The remaining lines, values behind:

Structure (SMILES): CCCN(CCCCN1CCN(c2ccccc2)CC1)C1CCc2ccc(O)cc2C1 (stereo not drawn) (as salt: HBr) [Compound 15b, 7-Hydroxyl-2-[N-propyl-(N-(4-phenylpiperazin-1-yl)-butyl)amino]tetralin]
melting point: 152 to 156 °C

Structure (SMILES): CCCN(CCN1CCN(c2ccccc2)CC1)C1CCc2nc(N)ncc2C1 (stereo not drawn) [Compound 23, 2-Amino-6-[N-propyl-(N-(4-phenylpiperazin-1-yl)-ethyl)amino]-5,6,7,8-tetrahydrobenzopyrimidine]
Ki (D2L receptor): 1120 ± 144 nM

Structure (SMILES): CCCN(CCN1CCN(c2ccccc2)CC1)C1CCc2nc(N)ncc2C1 (stereo not drawn) (as salt: HCl) [Compound 23, 2-Amino-6-[N-propyl-(N-(4-phenylpiperazin-1-yl)-ethyl)amino]-5,6,7,8-tetrahydrobenzopyrimidine]
melting point: 97 to 102 °C

Structure (SMILES): C#CCN(CCCCN1CCN(c2cccc(Cl)c2Cl)CC1)C1CCc2ccc(O)cc2C1 (stereo not drawn) (as salt: HCl) [Compound 19b, 7-Hydroxy-2-[N-propargyl-(N-(4-(2,3-dichlorophenyl)-piperazin-1-yl)-butyl)amino]tetralin]
melting point: 180 to 183 °C

Structure (SMILES): CCCN(CCN1CCN(c2ccccc2)CC1)C1CCc2sc(N)nc2C1 (stereo not drawn) [Compound 25, 2-Amino-5-[N-propyl-(N-(4-phenylpiperazin-1-yl)-ethyl)amino]-4,5,6,7-tetrahydrobenzothiazole]
Ki (D2L receptor): 2080 ± 162 nM | Ki (D3 receptor; D3 expressed in HEK cells): 4.14 ± 0.55 nM | D2L/D3 (D3 receptor; ratio of Ki D2L to Ki D3, HEK cells, [3H]spiperone): 502

Structure (SMILES): C#CCN(CCCCN1CCN(c2ccccc2)CC1)C1CCc2ccc(O)cc2C1 (stereo not drawn) (as salt: HBr) [Compound 12b, 7-Hydroxy-2-[N-propargyl-(N-(4-phenylpiperazin-1-yl)-butyl)amino]tetralin]
melting point: 182 to 186 °C

Structure (SMILES): C#CCN(CCCCN1CCN(c2ccccc2)CC1)C1CCc2ccc(O)cc2C1 (stereo not drawn) [Compound 12b, 7-Hydroxy-2-[N-propargyl-(N-(4-phenylpiperazin-1-yl)-butyl)amino]tetralin]
Ki (D1 receptor): 677 ± 34 nM | Ki (5HT1A receptor): 15.2 ± 3.34 nM | Ki (5HT2A receptor): 260 ± 41.9 nM | Ki (5HT2C receptor): 3220 ± 52.9 nM | Emax (D2 receptor): 85 ± 6.26% | EC50 (D4 receptor [1]; [3H]thymidine incorporation): 23.9 ± 3.57 nM | D4 % Maxm Stim (D4 receptor [1]; [3H]thymidine incorporation, >80% full agonist): 85.15 ± 17.64% | agonist character at the D4 receptor (D4 receptor [1]; functional assay): full agonists | affinity at the D4 receptor (D4 receptor [2]): good affinity | Ki (D4 receptor [2]; cloned human D4): 28.9 ± 4.41 nM

Structure (SMILES): CCCN(CCC)C1CCc2ccc(O)cc2C1 (stereo not drawn) [Compound 7-OH-DPAT, reference compound]
Ki (D1 receptor): 2550 ± 1080 nM | Ki (5HT1A receptor): 193 ± 3.4 nM | Ki (5HT2A receptor): > 10000 nM | Ki (5HT2C receptor): > 10000 nM

Structure (SMILES): CCCN(CCCCN1CCN(c2cccc(Cl)c2Cl)CC1)C1CCc2ccc(O)cc2C1 (stereo not drawn) (as salt: HCl) [Compound 19a, 7-Hydroxy-2-[N-propyl-(N-(4-(2,3-dichlorophenyl)-piperazin-1-yl)-butyl)amino]tetralin]
melting point: 155 to 159 °C

From US8227604B2, “Hybrid 2-aminotetralin and aryl-substituted piperazine compounds and their use in altering CNS activity” (Wayne State University, priority 2001, dated 2012)
